Test results published in US20180153860A1, “METHODS OF DOSE ADMINISTRATION FOR TREATING OR PREVENTING COGNITIVE IMPAIRMENT USING INDANE ACETIC ACID DERIVATIVES” (T3D Therapeutics, Inc., priority 2016, published 2018).

Experiments:
[1] = system: intracerebral (i.c.) Streptozotocin (STZ) rat model of Alzheimer's disease; test: Intracerebral Streptozotocin rat model of Alzheimer's disease, Morris Water Maze testing; format: in vivo, Long Evans rats; details: 0.25 mg/kg oral gavage every other day for 14 days; control and STZ rats; tested 11 days post-dosing
Method: The experimental rat model of Alzheimer's disease used in Table 7 involves intracerebral (i.c.) treatment with Streptozotocin (STZ), to cause brain metabolic dysfunction and insulin resistance as occurs in human sporadic Alzheimer' disease, with minimal or no systemic side-effects. Long Evans 4-week old male and female rats (8-12/group) were anesthetized by intraperitoneal (i.p.) injection of ketamine (100 mg/kg) plus xylazine (10 mg/kg). After shaving and cleaning (betadine x2 followed by 70% ethanol) the scalps, the rats were positioned in a stereotaxic frame and a midline incision was made. With subcutaneous tissue and skeletal muscle separated and retracted with small surgical hooks, the bregma and lambda areas were cleaned with 3% H2O2 soaked cotton swabs. […]
T3D-959 administration (0.25 mg/kg) to control and STZ rats was by oral gavage every other day for a period of 14-days. […] The latency to locate the platform was measured. Spatial memory and orientation were assessed by requiring the rat to locate the hidden platform from different entry points in the maze. […]
Data were analyzed by first calculating area under curves for each set of 3 trials, then averaging the AUC results within-group. […] Data were analyzed by 1-way ANOVA with Fisher post-tests. […]

[2] = system: mild to moderate severity Alzheimer's patients (MMSE=14-26); test: ADAS-cog11 score change in Alzheimer's patients after 14-day treatment; format: in vivo, human
Method: ADAS-cog11 score change from day 1 to day 14 (D1-D14), the end of 2-week treatment is compared to the ADAS-cog 1 from day 1 to day 21 (D1-D21), 7-days post treatment follow-up. With ADAS-cog 1 test scoring a greater negative score denotes greater cognitive improvement. Drug treatment of mild to moderate severity Alzheimer's patients (MMSE=14-26) with T3D-959 was for 14 days q.d. at 3 mg, 10 mg, 30 mg or 90 mg (n=number of subjects evaluable at each dose).

In the case of CCc1oc(-c2ccc(OC)cc2)nc1CCOc1ccc2c(c1)CC[C@H]2CC(=O)[O-].[Na+] [Example T3D-959], the “Morris Water Maze latency to locate the platform (spatial localization and memory, AUC of trials)” value [1] is reported as “benefited control as well as STZ-exposed rats”, the “subjects who exhibited an improved ADAS-cog11 test score” value ([2]; 10 mg cohort, 14 days q.d.) is reported as 5 of 9 and the “ADAS-cog11 score change D1-D14 compared to D1-D21” value ([2]; 14 days q.d. at 3 mg, 10 mg, 30 mg or 90 mg, D21 = 7-days post treatment follow-up) is reported as “cognitive improvement lasting beyond the end of treatment”.
